Experimental data published in ChEMBL document CHEMBL3600376, “Antibacterial activity of diketopiperazines isolated from a marine fungus using t-butoxycarbonyl group as a simple tool for purification” (2015).
≈ marks a conversion by molar mass, not a printed value.

How the values were obtained:
Assay type in all cases: functional
Staphylococcus aureus = test: Antibacterial activity against Staphylococcus aureus ATCC 25923 after 18 hrs by agar diffusion method; conditions: ATCC 25923, 18 h
Bacillus subtilis = test: Antibacterial activity against Bacillus subtilis NCTC 2116 after 18 hrs by agar diffusion method; conditions: NCTC 2116, 18 h
Escherichia coli = test: Antibacterial activity against Escherichia coli ATCC 25922 after 18 hrs by agar diffusion method; conditions: ATCC 25922, 18 h

Compound | MIC (Staphylococcus aureus) | MIC (Bacillus subtilis) | MIC (Escherichia coli)
O=C1N[C@@H](Cc2ccc(O)cc2)C(=O)N2CCC[C@@H]12 | 10.2 µg/mL (≈ 39.2 µM) | 8.7 µg/mL (≈ 33.4 µM) | > 20 µg/mL
COc1ccc2c3c(n(C(=O)OC(C)(C)C)c2c1)[C@H](C=C(C)C)N1C(=O)[C@@H]2CCCN2C(=O)[C@@H]1C3 | 2.8 µg/mL (≈ 5.84 µM) | 3.3 µg/mL (≈ 6.88 µM) | 16.4 µg/mL (≈ 34.2 µM)
CC(C)=CCc1c(C[C@H]2C(=O)N3CCC[C@H]3C(=O)N2C(=O)OC(C)(C)C)c2ccccc2n1C(=O)OC(C)(C)C | 2.2 µg/mL (≈ 3.99 µM) | 2.1 µg/mL (≈ 3.81 µM) | 19 µg/mL (≈ 34.4 µM)
CC(C)(C)OC(=O)n1cc(C[C@@H]2NC(=O)[C@@H]3CCCN3C2=O)c2ccccc21 | 8.9 µg/mL (≈ 23.2 µM) | 6.7 µg/mL (≈ 17.5 µM) | > 20 µg/mL
CCC(C)[C@@H]1NC(=O)[C@@H]2CCCN2C1=O (stereo partly specified) | 17.1 µg/mL (≈ 81.3 µM) | 15.8 µg/mL (≈ 75.1 µM) | > 20 µg/mL
CC(C)[C@@H]1NC(=O)[C@H]2CCCN2C1=O | 15.6 µg/mL (≈ 79.5 µM) | 16 µg/mL (≈ 81.5 µM) | 18.5 µg/mL (≈ 94.3 µM)
CC(C)[C@@H]1NC(=O)[C@@H]2CCCN2C1=O | 16.3 µg/mL (≈ 83.1 µM) | 18.2 µg/mL (≈ 92.7 µM) | > 20 µg/mL
CC(C)C[C@@H]1NC(=O)[C@@H]2CCCN2C1=O | 18.8 µg/mL (≈ 89.4 µM) | 15.7 µg/mL (≈ 74.7 µM) | > 20 µg/mL
O=C1N[C@@H](Cc2ccccc2)C(=O)N2CCC[C@@H]12 | 15.1 µg/mL (≈ 61.8 µM) | 17.2 µg/mL (≈ 70.4 µM) | > 20 µg/mL
CC1(C)S[C@@H]2[C@H](NC(=O)[C@H](N)c3ccc(O)cc3)C(=O)N2[C@H]1C(=O)O [AMOXICILLIN] | 0.05 µg/mL (≈ 0.137 µM) | 0.03 µg/mL (≈ 0.0821 µM) | 0.8 µg/mL (≈ 2.19 µM)
O=C1N[C@@H](Cc2c[nH]c3ccccc23)C(=O)N2CCC[C@@H]12 [BREVIANAMIDE F] | 12.6 µg/mL (≈ 44.5 µM) | 11.9 µg/mL (≈ 42 µM) | > 20 µg/mL
CN(C)[C@@H]1C(O)=C(C(N)=O)C(=O)[C@@]2(O)C(O)=C3C(=O)c4c(O)cccc4[C@@](C)(O)[C@H]3C[C@@H]12 [TETRACYCLINE] | 1.5 µg/mL (≈ 3.38 µM) | 1.2 µg/mL (≈ 2.7 µM) | 3.9 µg/mL (≈ 8.78 µM)
